Laboratory results published in patent US20240182445A1 (ONO PHARMACEUTICAL CO., LTD., priority 2019, published 2024).

These compounds were tested against T1, human TREK-1 (Homo sapiens, UniProt O95069) (assay: TREK-1 Thallium (Tl+) flux assay, Method 1). Details: TREK-1 Thallium (Tl+) flux assay; no *^12 (Method 2) mark on these rows.
T1 construct: expressed in transfected cells
T1 sequence (O95069 1-426): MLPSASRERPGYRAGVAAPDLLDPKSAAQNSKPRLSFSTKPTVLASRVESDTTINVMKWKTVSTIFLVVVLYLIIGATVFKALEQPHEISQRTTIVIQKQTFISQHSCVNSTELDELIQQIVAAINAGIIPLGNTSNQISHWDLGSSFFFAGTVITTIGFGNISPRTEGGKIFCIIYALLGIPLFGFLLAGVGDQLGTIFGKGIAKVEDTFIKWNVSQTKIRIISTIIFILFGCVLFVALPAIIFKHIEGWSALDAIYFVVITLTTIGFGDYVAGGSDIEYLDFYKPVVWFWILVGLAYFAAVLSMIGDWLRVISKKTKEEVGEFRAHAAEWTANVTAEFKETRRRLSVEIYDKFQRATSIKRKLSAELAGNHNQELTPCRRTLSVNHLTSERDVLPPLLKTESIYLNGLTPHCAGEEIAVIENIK
Assay type: cell-based
Protocol: The term “thallium flux assay” herein refers to a fluorescence-based assay used to monitor the activity of TREK channels. Thallium is a congener of potassium that readily fluxes through the pore of TREK channels. Thallium flux is measured using a commercially available, thallium-sensitive fluorescent dye called Thallos. The detail method is described below.
CHO-K1 cells stably expressing human TREK-1 were plated in 384-well plates, cultured overnight, loaded with Thallos dye the following day. Test compounds or control compound (tert-butyl (3-((4-(benzyloxy)-2-methylphenyl)carbamoyl)-4-chlorophenyl)carbamate) or 0.3% DMSO (vehicle control) which were prepared on separate plates were added to the cell plates and incubated for 10 min, and then the cells were treated with thallium stimulus buffer to initiate thallium flux. To measure the efficacy and potency of test compounds, the change in fluorescence intensity (ΔRatio) and % inhibition were calculated using the following equations:
ΔRatio=(fluorescence intensity at 25 seconds after thallium addition)/(average of fluorescent intensity before thallium addition)

For `Cc1cc(C#Cc2ccccc2)cnc1NC(=O)c1c(Cl)cnn1CC1(F)CCN(C(=O)C(C)C)CC1` [Compound 236, 4-chloro-1-((4-fluoro-1-isobutyrylpiperidin-4-yl)methyl)-N-(3-methyl-5-(phenylethynyl)pyridin-2-yl)-1H-pyrazole-5-carboxamide], which IC50 is on record?
Its IC50 is 360 nM.

How did the IC50 turn out when “tert-butyl 4-(4-chloro-5-((3-fluoro-5-(phenylethynyl)pyridin-2-yl)carbamoyl)-1H-pyrazol-1-yl)-2-methylpiperidine-1-caboxylate [Compound 324]” was run?
The IC50 was 640 nM.

Same assay, conditions: TREK-1 Thallium (Tl+) flux assay; values without footnote *12 are Method 1

`Cc1cc(C#Cc2cccs2)cnc1NC(=O)c1c(Cl)cnn1CC1CCN(C(=O)C2CC2)CC1` [Compound 57, 4-chloro-1-((1-(cyclopropanecarbonyl)piperidin-4-yl)methyl)-N-(3-methyl-5-(thiophen-2-ylethynyl)pyridin-2-yl)-1H-pyrazole-5-carboxamide] was tested. Which IC50 did it give?
Its IC50 is 140 nM.

`N#CCCCn1ncc(Cl)c1C(=O)Nc1ncc(C#Cc2ccccc2)cc1F` [Compound 59, 4-chloro-1-(3-cyanopropyl)-N-(3-fluoro-5-(phenylethynyl)pyridin-2-yl)-1H-pyrazole-5-carboxamide] was tested. Which IC50 did it give?
Its IC50 is 150 nM.

`CC(=O)N1CC[C@@H](Cn2ncc(Cl)c2C(=O)Nc2ncc(C#Cc3ccccc3)cc2F)[C@@H](F)C1` [Compound 88, 1-(((3R,4S)-1-acetyl-3-fluoropiperidin-4-yl)methyl)-4-chloro-N-(3-fluoro-5-(phenylethynyl)pyridin-2-yl)-1H-pyrazole-5-carboxamide] was tested. Which IC50 did it give?
The IC50 was 170 nM.

How did the IC50 turn out when `O=C(Nc1ncc(C#Cc2ccccc2)cc1F)c1c(Cl)cnn1CCC1CCN(C(=O)C2CC2)CC1` [Compound 56, 4-chloro-1-(2-(1-(cyclopropanecarbonyl)piperidin-4-yl)ethyl)-N-(3-fluoro-5-(phenylethynyl)pyridin-2-yl)-1H-pyrazole-5-carboxamide] was run?
The IC50 was 140 nM.

With `CCC(=O)N1CCC(n2ncc(Cl)c2C(=O)Nc2ncc(C#Cc3ccc(F)cc3)cc2C)CC1` [Compound 66, 4-chloro-N-(5-((4-fluorophenyl)ethynyl)-3-methylpyridin-2-yl)-1-(1-propionylpiperidin-4-yl)-1H-pyrazole-5-carboxamide] as the compound, how does the IC50 read?
The IC50 was 150 nM.

`O=C(Nc1ncc(C#Cc2cccc(F)c2)cc1F)c1c(Cl)cnn1CC1CCOCC1` [Compound 50, 4-chloro-N-(3-fluoro-5-((3-fluorophenyl)ethynyl)pyridin-2-yl)-1-((tetrahydro-2H-pyran-4-yl)methyl)-1H-pyrazole-5-carboxamide] was tested. Which IC50 did it give?
Its IC50 is 140 nM.

For `Cc1cc(C#Cc2ccccc2)cc(F)c1NC(=O)c1c(Cl)cnn1C1CCOCC1` [Compound 180, 4-chloro-N-(2-fluoro-6-methyl-4-(phenylethynyl)phenyl)-1-(tetrahydro-2H-pyran-4-yl)-1H-pyrazole-5-carboxamide], which IC50 is on record?
The IC50 was 280 nM.

How did the IC50 turn out when `CC(=O)N1CCC(CCn2ncc(Cl)c2C(=O)Nc2ncc(C#Cc3cccc(F)c3)cc2C)CC1` [Compound 133, 1-(2-(1-acetylpiperidin-4-yl)ethyl)-4-chloro-N-(5-((3-fluorophenyl)ethynyl)-3-methylpyridin-2-yl)-1H-pyrazole-5-carboxamide] was run?
The IC50 was 220 nM.

With `CCC(=O)N1CCC(n2ncc(Cl)c2C(=O)Nc2ncc(C#Cc3ccccc3)cc2C)CC1` [Compound 41, 4-chloro-N-(3-methyl-5-(phenylethynyl)pyridin-2-yl)-1-(1-propionylpiperidin-4-yl)-1H-pyrazole-5-carboxamide] as the compound, how does the IC50 read?
The IC50 was 130 nM.

Same assay, conditions: read-out: Tl^+ Assay % inhibition at 30 uM (Minus value indicates activation of TREK-1); at 30 uM; CHO-K1 cells stably expressing human TREK-1; minus = activation

With `CC(=O)N1CCC(CCn2cc(Cl)c(C(=O)Nc3ncc(C#Cc4cccs4)cc3C)n2)CC1` [Compound 440, 1-(2-(1-actetylpiperidin-4-yl)ethyl)-4-chloro-N-(3-methyl-5-(thiophen-2-ylethynyl)pyridin-2-yl)-1H-pyrazole-3-carboxamide] as the compound, how does the inhibition at 30 µM read?
Its inhibition at 30 µM is -135%.

For `Cn1ncc2c1CC(n1cc(Cl)c(C(=O)Nc3ncc(C#Cc4ccccc4)cc3F)n1)CC2=O` (stereo not shown) [Compound 453, 4-chloro-N-(3-fluoro-5-(phenylethynyl)pyridin-2-yl)-1-(1-methyl-4-oxo-4,5,6,7-tetrahydro-1H-indazol-6-yl)-1H-pyrazole-3-carboxamide], which inhibition at 30 µM is on record?
Its inhibition at 30 µM is -56%.
